What all share (assay type): cell-based, human
One experiment deals with MU89 melanoma cells. In words: Tumor cell/T cell co-culture IL-2 ELISA (Melan-A/MART-1 specific TCR Jurkat line J-TCR-M1 as responder). The note with it: for Outcome in the primary co-culture IL-2 screen (hit or not): ICCB Known Bioactives Library, 10 μM; for Fold increase (IL-2 relative to untreated controls), hits from pilot screen: about 10 μM, 72 hours treatment, then 24 hours co-culture. The source says:
The assay relies on the use of an antigen-specific responder T cell line. […] The chosen TCR reacts specifically to a Melan-A/MART-1 decapeptide (26[…]35) presented by HLA-A2, with appropriate triggering of T cell activation. We then used a lentiviral vector system for transduction of this specific TCR into the J.RT3-T3.5 T cell line, a Jurkat cell derivative which fails to express endogenous surface TCR through a mutation in its beta chain.
We evaluated several candidate melanoma cell lines for the ability to stimulate the J-TCR-M1 cell line. Levels of Melan-A/MART-1 (determined by intracellular staining and flow cytometry) and corresponding levels of induced IL-2 (determined by coculture with J-TCR-M1 and IL-2 ELISA) were tested for different melanoma cell lines.
The 480 compounds were tested in six parallel 96 well plates. The first two columns (16 wells) of each plate were used for standards (8 wells), untreated controls (4 wells), and positive controls (4 wells). The other ten columns (80 wells) were used for testing compounds in separate wells. A100 μl aliquot containing 5×10^4 MU89 cells was added to wells that contained 0.1 μl of each test drug diluted in 50 μl of RPMI media. The plates were incubated with drug for 72 hours at 37° C. in a humidified incubator with 5% CO2. After 72 hours, each well received 2.5×10^4J-TCR-M1 cells in 50 μl medium, and then incubated a further 24 hours. At the conclusion of the 24 hour co-culture period, each plate was centrifuged to pellet the cells and 100 μl supernatant fluid was collected from each well and plated in a parallel 96 well flat bottom well for IL-2 ELISA assay.
Melanoma cells were treated with hits from the primary screen for three days prior to counting and plating for the coculture assay (cells were washed and resuspended in fresh medium that no longer contained the treatment agents during the co-culture). A100 μl volume of 5×10^5 cells/ml tumor cells were mixed with 50 μl of […] T cells in a 96-well V-bottom plate and incubated overnight (16-24 hours). Plates were centrifuged to pellet the cells and 100 μl of supernatant fluid was removed from each well for cytokine assay. To assess antigen-specific T cell responses, a final concentration of 3.33 μg/ml Melan-A/MART-1 peptide (26[…]35 (A27L from wild type)) was added to the co-culture.
The protocol for evaluation of the cytokine IL-2 was performed using a the BD OptEAI kit, human IL-2 ELISA set from BD Biosciences (San Diego, Calif.) following the manufacturer's recommendations. The absorbance 450 nm was read in a BioRad 3550 plate reader. A standard curve using known concentrations of IL-2 (from 500 to 8 pg/ml) was included in each ELISA plate. IL-2 levels for experimental samples (pg/ml) were calculated from the standard curve.
100 μl of 5×10^5 tumor cells/ml were mixed with 50 μl of T cells (at 5×10^5 cells/ml) in a 96-well V-bottom plate and incubated overnight (16-24 hours). Plates were centrifuged to pellet the cells and 120 μl of supernatant fluid was removed from each well for cytokine assay. To assess antigen-specific T cell responses, 3.33 μg/ml Melan-A/MART-1 peptide was added to the co-culture.
The protocols for evaluation of either IL-2 or IFN-gamma were similar, following the manufacturer's recommendations. A standard curve using known concentrations of each cytokine was included in each ELISA experiment. ELISA plates were coated with capture antibody and then washed with 1×PBS 0.5% Tween-20. Wells were blocked with 1×PBS 1% FBS for 1 hour and rewashed.

For the next experiment, the system named is MU89 melanoma cell line. Description: Antibody staining and flow cytometry (intracellular Melan-A/MART-1, gp100, TRP-2; surface MHC Class I/II). The note with it: MU89 cells. Here is the method:
(§1) Cells were fixed with 1% formaldehyde, permeabilized with 0.1% saponin, stained with monoclonal antibodies to melanocyte antigens. Antibodies were obtained with specificity for: MART-1 from Vector Labs (Burlingame, Calif.); gp100 HMB45 from DakoCytomation (Carpinteria, Calif.) and then visualized with goat anti-mouse FITC-conjugated secondary antibody from Invitrogen (Fredrick, Md.). The level of EGFP was determined by flow cytometry of unfixed cells that were washed and resuspended in 1×PBS.
(§2) Cells were plated at a density of 1×10^5 in 1 ml of medium in a 24-well plate and cultured for varying times as indicated in results. […] After incubation, cells were collected by trypsinization and then evaluated by flow cytometry.
(§3) Intracellular staining and flow cytometric analyses of cytoplasmic Melan-A/MART-1, and gp100 expression were performed as described previously. Cells were fixed with 1% formaldehyde, permeabilized with 0.1% saponin, stained with monoclonal antibodies to melanocyte antigens. Antibodies were obtained with specificity for: Melan-A/MART-1 from Vector Labs (Burlingame, Calif.); gp100/HMB45 from DakoCytomation (Carpinteria, Calif.) and then visualized with goat anti-mouse FITC-conjugated secondary antibody from Invitrogen (Frederick, Md.). The level of EGFP was determined by flow cytometry of unfixed cells washed and resuspended in 1×PBS. Surface staining of MHC Class I was carried out using the antibody W6/32 on cells harvested with Cell Stripper from MediaTech Inc. (Manassas, Va.) and carried out on ice.
(§4) Cell were seeded at 1×10^6 cells in a T25 flask with 10 ml of media for the 4 day IFN-beta pre-treatments. Cells were then harvested and plated in 24 well plate at 1×10^5 cells per well in 1 ml of media for 3 day treatments.
(§5) For surface staining of HLA Class I and II antigens, cells were harvested using CellStripper™ from Mediatech (Manassas, Va.). All staining steps were performed on ice. Following a first incubation with antibody to Class I (W6/32) or Class II (L243) for 30 minutes. Stained cells were washed twice with cold PBS and then stained with a goat anti-mouse FITC secondary antibody to allow for quantitative analysis by flow cytometry. For evaluation of cytoplasmic antigens, including Melan-A/MART-1 and gp100, cells were first fixed in paraformaldehyde and permeabilized with saponin as previously described. Staining for cytoplasmic antigens was carried out at room temperature (22° C.).

Experiment [1] deals with U-118 MG glioma cell line. In words: Antibody staining and flow cytometry (intracellular gp100; surface MHC Class I/II). The note with it: U118 cells; Table 20; single agent or simultaneous combination. Here is the method:
as §1, §2, §3, §4, §5

A further experiment concerns U2-OS osteosarcoma cells. In words: Surface antibody staining and flow cytometry (MHC Class I/II). Conditions: U2-OS cells; Table 20; single agent or simultaneous combination. Here is the method: as §3, §4, §5
The test system of experiment [2] is HeLa cervical carcinoma cells. Described as above. The note with it: HeLa cells. Here is the method:
as §3, §4, §5

In experiment [3] the test system is MCF-7 breast cancer cells. The description is as above. The note with it: MCF-7 cells; Table 20; single agent or simultaneous combination. Here is the method:
as §3, §4, §5

[4] abbreviates: Table 20, single agent or simultaneous combination.
[5] abbreviates: Table 21, no pre-treatment, treatment as labelled.
[6] abbreviates: Table 21, pre-treatment PU-H71 (3 days), then treatment as labelled.
[7] abbreviates: Table 21, substance given as pre-treatment (3 days) only, no subsequent treatment.

Turning to `COc1cccc2c1C(=O)c1c(O)c3c(c(O)c1C2=O)C[C@@](O)(C(C)=O)C[C@@H]3O[C@H]1C[C@H](N)[C@H](O)[C@H](C)O1` [daunorubicin], the “Outcome in the primary co-culture IL-2 screen (hit or not)” value (“Outcome … (hit or not)” below) with MU89 melanoma cells is given as “interferes with the direct co-culture assay”.

`N#CC(=C(/N)Sc1ccccc1N)/C(C#N)=C(\N)Sc1ccccc1N` [U0126]: in the experiment with MU89 melanoma cells, the “Outcome … (hit or not)” value is “failed to be identified”.

In the case of `COc1cccc2c1C(=O)c1c(O)c3c(c(O)c1C2=O)C[C@@](O)(C(=O)CO)C[C@@H]3O[C@H]1C[C@H](N)[C@H](O)[C@H](C)O1` [doxorubicin], the “Outcome … (hit or not)” value in the experiment on MU89 melanoma cells is reported as “failed to be identified”.

`CCCCCCCCCCCCCCCCCCc1ccc(C(=O)C=CC(=O)O)cc1` [OBAA, 3-(4-octadecyl)benzoylacrylic acid]: the “Fold increase (IL-2 relative to untreated controls), hits from pilot screen” value in the experiment with MU89 melanoma cells stood at 5.9 fold.

Turning to `Fc1ccc(C(c2ccc(F)cc2)N2CCN(C/C=C/c3ccccc3)CC2)cc1` [Flunarizine], the “Fold increase (IL-2 relative to untreated controls), hits from pilot screen” value in the experiment with MU89 melanoma cells turned out to be 11.9 fold.

For the compound `COc1cccc(-c2cc(=O)c3ccccc3o2)c1N` [PD98059], the “Outcome … (hit or not)” value with MU89 melanoma cells was “failed to be identified”.

Turning to `CC[C@@]1(O)C(=O)OCc2c1cc1n(c2=O)Cc2cc3ccccc3nc2-1` [camptothecin], the “Outcome … (hit or not)” value with MU89 melanoma cells is reported as “failed to be identified”.

On to `COc1ccc(Cl)cc1C(=O)NCCc1ccc(S(=O)(=O)NC(=O)NC2CCCCC2)cc1` [Glyburide], for which the “Fold increase (IL-2 relative to untreated controls), hits from pilot screen” value in the experiment with MU89 melanoma cells turned out to be 2.6 fold.

Turning to `COc1c(C=O)c(O)cc2c1C(=O)c1ccccc1C2=O` [Damnacanthal], the “Fold increase (IL-2 relative to untreated controls), hits from pilot screen” value in the experiment on MU89 melanoma cells was 2.1 fold.

In the case of `COc1cc([C@@H]2c3cc4c(cc3[C@@H](O[C@@H]3O[C@@H]5CO[C@@H](C)O[C@H]5[C@H](O)[C@H]3O)[C@H]3COC(=O)[C@H]23)OCO4)cc(OC)c1O` [etoposide], the “Outcome … (hit or not)” value in the experiment on MU89 melanoma cells is “failed to be identified”.

Take `O=C1CN(/N=C/c2ccc(-c3ccc([N+](=O)[O-])cc3)o2)C(O)=N1` [Dantrolene]: the “Fold increase (IL-2 relative to untreated controls), hits from pilot screen” value with MU89 melanoma cells is 2.4 fold.

Turning to IFN-G, the “L243 (MHC Class II surface staining)” value in the experiment with MU89 melanoma cell line (setting [4]) is reported as 64.3; in the experiment on MU89 melanoma cell line (setting [5]), 81; in the experiment with MU89 melanoma cell line (setting [6]) it was 90; with MU89 melanoma cell line (setting [7]) it was 64; in experiment [1], 53.6; in the experiment with U2-OS osteosarcoma cells, 142.8. Further, the “L243 (MHC Class II surface staining)” value in experiment [2] (setting [4]) is listed as 86.0; in experiment [2] (setting [5]) it was 97; in experiment [2] (setting [6]), 33; in experiment [2] (setting [7]), 76; in experiment [3] it was 59.1. Also, the “W6/32 (MHC Class I surface staining)” value in the experiment on MU89 melanoma cell line (setting [4]) amounted to 86.7; in experiment [1], 232.8; with U2-OS osteosarcoma cells it was 397.1; in experiment [2] (setting [4]), 464.8; in experiment [3], 478.5.
